Experiments:
Format in all cases: in vivo
[1] = test system: transplanted paddy-field rice; test: Test Example 4: crop injury against transplanted paddy-field rice; conditions: no second compound, after 25 days
Outline: (§1)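 Flooded greenhouse pots of paddy soil were sown in the top 1 cm with dormancy-broken weed seeds and planted with tubers, and 2.2-leaf rice was transplanted. Three days later, water-diluted wettable powder was applied at set dosages, and growth inhibition was rated 25 days after that on a 0 (0–15%) to 5 (96–100%) scale.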

black nightshade = test: Test Example 3: herbicidal effects (foliar treatment); conditions: chemical dosage 2 kg/a; foliar treatment at 10 to 15 cm; judged after 14 days
Procedure: (§2) Judgment Standard • 0: Growth inhibition rate; 0 to 10% • 1: Growth inhibition rate; 11 to 30% • 2: Growth inhibition rate; 31 to 50% • 3: Growth inhibition rate; 51 to 70% • 4: Growth inhibition rate; 71 to 90% • 5: Growth inhibition rate; 91 to 100%.
(§3) Upland soil was filled in 150 cm^2 pot, and seeds of velvetleaf, tall morningglory, indian mustard, black nightshade redroot pigweed were sowed, and grown in a greenhouse. After the weeds were grown with 10 to 15 cm or so, a predetermined chemical dosage of the wettable powder prepared in accordance with Preparation example 1 was diluted with water containing 0.05% of GRAMIN-S and applied as a foliar treatment. After 14 days from the treatment, herbicidal effects were judged in accordance with the judgment standard of Test example 1, and the results were shown in Table 4. Incidentally, “-” in the table means no test was carried out.

redroot pigweed = test: as above; conditions: foliar treatment at 10 to 15 cm, judged after 14 days
Procedure: as §2, §3

velvetleaf = test: as above; conditions: chemical dosage 2 kg/a; foliar treatment at 10 to 15 cm; judged after 14 days
Procedure: as §2, §3

tall morningglory = test: as above; conditions: foliar treatment at 10 to 15 cm, judged after 14 days
Procedure: as §2, §3

indian mustard = test: as above; conditions: foliar treatment at 10 to 15 cm, judged after 14 days
Procedure: as §2, §3

Eleocharis kuroguwai = test: Test Example 4: herbicidal effects of mixed wettable powder, paddy-field pot test; conditions: no second compound, after 25 days
Outline: as §1

[2] = test system: annual broad-leaved weeds (Lindernia spp. and Rotala indica); test: as above; conditions: no second compound, after 25 days
Outline: as §1

[3] = test system: barnyardgrass (Echinochloa oryzicola Vasing.); test: as above; conditions: no second compound, after 25 days
Outline: as §1

Scirpus joncoides [4] = test: as above; conditions: no second compound, after 25 days
Outline: as §1

Sagittaria pygmaea = test: as above; conditions: no second compound, after 25 days
Outline: as §1

Cyperus serotinus [5] = test: as above; conditions: no second compound, after 25 days
Outline: as §1

barnyardgrass = test: Test Example 2: herbicidal effects (soil treatment); conditions: soil treatment the day after seeding, judged after 21 days
Source text: as §2
(§4) Upland soil was filled in 150 cm^2 pot, and seeds of barnyardgrass and indian mustard (Brassica juncea (L.) Czern. et Coss) were sowed, and grown in a greenhouse. At the next day of seeding, a predetermined chemical dosage of the wettable powder prepared in accordance with Preparation example 1 was diluted in water and applied to soil surface. After 21 days from the treatment, herbicidal effects were judged in accordance with the judgment standard of Test example 1, and the results were shown in Table 3.

[6] = test system: indian mustard (Brassica juncea (L.) Czern. et Coss); test: as above; conditions: soil treatment the day after seeding, judged after 21 days
Source text: as §2, §4

[7] = test system: transplanted paddy-field rice; test: Test Example 1: crop injury against transplanted paddy-field rice; conditions: wettable powder applied 3 days after transplanting, judged after 25 days
Outline: (§5)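 Herbicidal effect and rice injury were graded on a six-step growth-inhibition scale (0: 0–10% to 5: 91–100%) at 25 days after pot application of water-diluted wettable powder, given 3 days post-transplant under flooded greenhouse conditions.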

[8] = test system: annual broad-leaved weeds (Lindernia spp., Rotala indica); test: Test Example 1: herbicidal effects, paddy-field pot test; conditions: wettable powder applied 3 days after transplanting, judged after 25 days
Outline: as §5

[9] = test system: barnyardgrass (Echinochloa oryzicola Vasing.); test: as above; conditions: wettable powder applied 3 days after transplanting, judged after 25 days
Outline: as §5

Scirpus joncoides [10] = test: as above; conditions: wettable powder applied 3 days after transplanting, judged after 25 days
Outline: as §5

Cyperus serotinus [11] = test: as above; conditions: wettable powder applied 3 days after transplanting, judged after 25 days
Outline: as §5

In the case of `Cc1cccc(C2CC2)c1Oc1nnc(Cl)cc1O` [Example 23], the “Crop injury against transplanted rice” value ([1]; derivative 5 g/a) was 0 (Growth-inhibition rate; 0 to 15%), the “Crop injury against transplanted rice” value ([1]; derivative 10 g/a) was 0 (Growth-inhibition rate; 0 to 15%) and the “Herbicidal effects Black Night-shade” value (black nightshade) was 5 (Growth inhibition rate; 91 to 100%). The “Herbicidal effects Redroot pigweed” value (redroot pigweed; chemical dosage 2 kg/a) was 4 (Growth inhibition rate; 71 to 90%), the “Herbicidal effects Velvet-leaf” value (velvetleaf) was 4 (Growth inhibition rate; 71 to 90%) and the “Herbicidal effects Tall Morningglory” value (tall morningglory; chemical dosage 2 kg/a) was 5 (Growth inhibition rate; 91 to 100%). The “Herbicidal effects indian mustard” value (indian mustard; chemical dosage 2 kg/a) was 5 (Growth inhibition rate; 91 to 100%), the “Herbicidal effects Eleocharis kuroguwai” value (Eleocharis kuroguwai; derivative 5 g/a) was 2 (Growth inhibition rate; 36 to 55%) and the “Herbicidal effects Eleocharis kuroguwai” value (Eleocharis kuroguwai; derivative 10 g/a) was 3 (Growth inhibition rate; 56 to 75%). The “Herbicidal effects Broad leaf” value ([2]; derivative 5 g/a) was 5 (Growth inhibition rate; 96 to 100%), the “Herbicidal effects Broad leaf” value ([2]; derivative 10 g/a) was 5 (Growth inhibition rate; 96 to 100%) and the “Herbicidal effects Barnyard grass” value ([3]; derivative 5 g/a) was 2 (Growth inhibition rate; 36 to 55%). For the same molecule, the “Herbicidal effects Barnyard grass” value ([3]; derivative 10 g/a) was 3 (Growth inhibition rate; 56 to 75%), the “Herbicidal effects Scirpus joncoides” value (Scirpus joncoides [4]; derivative 5 g/a) was 5 (Growth inhibition rate; 96 to 100%) and the “Herbicidal effects Scirpus joncoides” value (Scirpus joncoides [4]; derivative 10 g/a) was 5 (Growth inhibition rate; 96 to 100%). The “Herbicidal effects Sagittaria pygmaea” value (Sagittaria pygmaea; derivative 5 g/a) was 5 (Growth inhibition rate; 96 to 100%), the “Herbicidal effects Sagittaria pygmaea” value (Sagittaria pygmaea; derivative 10 g/a) was 5 (Growth inhibition rate; 96 to 100%) and the “Herbicidal effects Cyperus serotinus” value (Cyperus serotinus [5]; derivative 5 g/a) was 5 (Growth inhibition rate; 96 to 100%). The “Herbicidal effects Cyperus serotinus” value (Cyperus serotinus [5]; derivative 10 g/a) was 5 (Growth inhibition rate; 96 to 100%), the “Herbicidal effects Barnyard-grass” value (barnyardgrass; dosage 2 kg/a) was 4 (Growth inhibition rate; 71 to 90%) and the “Herbicidal effects indian mustard” value ([6]; dosage 2 kg/a) was 5 (Growth inhibition rate; 91 to 100%). For the same molecule, the “Crop injury against transplanted rice” value ([7]; chemical dosage 10 g/a) was 0 (Growth inhibition rate; 0 to 10%), the “Crop injury against transplanted rice” value ([7]; chemical dosage 20 g/a) was 2 (Growth inhibition rate; 31 to 50%) and the “Herbicidal effects Broad leaf” value ([8]; chemical dosage 10 g/a) was 5 (Growth inhibition rate; 91 to 100%). The “Herbicidal effects Broad leaf” value ([8]; chemical dosage 20 g/a) was 5 (Growth inhibition rate; 91 to 100%), the “Herbicidal effects Barnyard grass” value ([9]; chemical dosage 10 g/a) was 3 (Growth inhibition rate; 51 to 70%) and the “Herbicidal effects Barnyard grass” value ([9]; chemical dosage 20 g/a) was 4 (Growth inhibition rate; 71 to 90%). The “Herbicidal effects Scirpus joncoides” value (Scirpus joncoides [10]; chemical dosage 10 g/a) was 5 (Growth inhibition rate; 91 to 100%), the “Herbicidal effects Scirpus joncoides” value (Scirpus joncoides [10]; chemical dosage 20 g/a) was 5 (Growth inhibition rate; 91 to 100%) and the “Herbicidal effects Cyperus serotinus” value (Cyperus serotinus [11]; chemical dosage 10 g/a) was 5 (Growth inhibition rate; 91 to 100%). For the same molecule, the “Herbicidal effects Cyperus serotinus” value (Cyperus serotinus [11]; chemical dosage 20 g/a) was 5 (Growth inhibition rate; 91 to 100%).

For `Oc1cc(Cl)nnc1Oc1c(F)cccc1C1CC1` [Example 236], the “Herbicidal effects Redroot pigweed” value (redroot pigweed; chemical dosage 0.5 kg/a) was 3 (Growth inhibition rate; 51 to 70%), the “Herbicidal effects Tall Morningglory” value (tall morningglory; chemical dosage 0.5 kg/a) was 4 (Growth inhibition rate; 71 to 90%) and the “Herbicidal effects indian mustard” value (indian mustard; chemical dosage 0.5 kg/a) was 3 (Growth inhibition rate; 51 to 70%). For the same molecule, the “Herbicidal effects Barnyard-grass” value (barnyardgrass; dosage 5 kg/a) was 3 (Growth inhibition rate; 51 to 70%), the “Herbicidal effects indian mustard” value ([6]; dosage 5 kg/a) was 5 (Growth inhibition rate; 91 to 100%) and the “Crop injury against transplanted rice” value ([7]; chemical dosage 10 g/a) was 0 (Growth inhibition rate; 0 to 10%). For the same molecule, the “Crop injury against transplanted rice” value ([7]; chemical dosage 20 g/a) was 0 (Growth inhibition rate; 0 to 10%), the “Herbicidal effects Broad leaf” value ([8]; chemical dosage 10 g/a) was 5 (Growth inhibition rate; 91 to 100%) and the “Herbicidal effects Broad leaf” value ([8]; chemical dosage 20 g/a) was 5 (Growth inhibition rate; 91 to 100%). The “Herbicidal effects Barnyard grass” value ([9]; chemical dosage 10 g/a) was 3 (Growth inhibition rate; 51 to 70%), the “Herbicidal effects Barnyard grass” value ([9]; chemical dosage 20 g/a) was 4 (Growth inhibition rate; 71 to 90%) and the “Herbicidal effects Scirpus joncoides” value (Scirpus joncoides [10]; chemical dosage 10 g/a) was 5 (Growth inhibition rate; 91 to 100%). For the same molecule, the “Herbicidal effects Scirpus joncoides” value (Scirpus joncoides [10]; chemical dosage 20 g/a) was 5 (Growth inhibition rate; 91 to 100%), the “Herbicidal effects Cyperus serotinus” value (Cyperus serotinus [11]; chemical dosage 10 g/a) was 5 (Growth inhibition rate; 91 to 100%) and the “Herbicidal effects Cyperus serotinus” value (Cyperus serotinus [11]; chemical dosage 20 g/a) was 5 (Growth inhibition rate; 91 to 100%).

Source: patent US7964531B2, “3-phenoxy-4-pyridazinol derivatives and herbicidal composition containing the same” (Mitsui Chemicals Agro, Inc., priority 2001, dated 2011)
